EC50 data for 18 molecules are collected here from patent US20230348426A1, “OXOPYRROLIDINE FPR2 AGONISTS” (Bristol-Myers Squibb Company, priority 2020, published 2023).

Each structure is given as a SMILES string.

The target in one assay is human FPR2 (Homo sapiens (Human), UniProt P25090). Kind of assay: FPR2 cyclic adenosine monophosphate (cAMP) assay. Format: cell-based. The conditions noted are these: CHO cells overexpressing human FPR2; forskolin 5 µM; inhibition of cAMP production; read-out: hFPR2 cAMP2 EC50. A digest of the protocol: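 Inhibition of forskolin-driven (5 µM) cAMP, with 200 µM IBMX, measured in human FPR2-expressing CHO cells, 2,000 per well, 30 min at room temperature; compounds tested 0.020 nM to 100 µM in 1% DMSO. HTRF 665/590 ratio converted to cAMP via calibration curve, then 4-parameter fit.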
Sequence of human FPR2 (P25090 whole entry): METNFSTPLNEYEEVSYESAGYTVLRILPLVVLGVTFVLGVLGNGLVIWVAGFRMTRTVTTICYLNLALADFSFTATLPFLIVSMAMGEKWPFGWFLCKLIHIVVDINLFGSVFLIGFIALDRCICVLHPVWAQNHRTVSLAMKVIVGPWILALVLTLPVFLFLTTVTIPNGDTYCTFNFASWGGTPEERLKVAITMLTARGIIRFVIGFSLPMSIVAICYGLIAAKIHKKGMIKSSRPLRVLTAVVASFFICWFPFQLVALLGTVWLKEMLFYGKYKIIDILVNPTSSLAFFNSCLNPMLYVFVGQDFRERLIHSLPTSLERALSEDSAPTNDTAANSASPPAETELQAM
Background: Cyclic AMP is a second messenger, typically raised through Gs and lowered through Gi signalling.

The next assay has as its target human FPR1 (Homo sapiens (Human), UniProt P21462). Kind of assay: FPR1 cyclic adenosine monophosphate (cAMP) assay. Format: cell-based. The following applies: CHO cells overexpressing human FPR1; forskolin 10 µM; inhibition of cAMP production; read-out: hFPR1 cAMP EC50. In a few lines: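 Human FPR1-expressing CHO cells were used at 4,000 per well, with compound at 0.020 nM–100 µM in 1% DMSO. Potency came from a 4-parameter logistic fit.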

Sequence of human FPR1 (P21462 whole entry): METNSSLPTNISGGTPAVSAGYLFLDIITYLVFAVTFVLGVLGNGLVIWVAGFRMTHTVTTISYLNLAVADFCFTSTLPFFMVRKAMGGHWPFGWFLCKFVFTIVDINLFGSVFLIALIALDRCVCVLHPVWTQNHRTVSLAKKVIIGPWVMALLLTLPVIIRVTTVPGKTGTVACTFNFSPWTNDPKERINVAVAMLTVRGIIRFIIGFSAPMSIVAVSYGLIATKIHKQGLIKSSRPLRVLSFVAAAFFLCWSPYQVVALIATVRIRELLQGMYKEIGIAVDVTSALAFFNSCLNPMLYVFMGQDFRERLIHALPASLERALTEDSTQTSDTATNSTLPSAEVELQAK

The EC50 is the concentration giving half of the maximal effect. Turning to `COc1ccc([C@@H]2CN(c3c(C)ccn(C4CCOC4)c3=O)C(=O)[C@H]2NC(=O)c2ccc(OC(F)F)cc2)cc1` (stereo partly drawn) [Example 265], the EC50 on human FPR2 is 7.6 nM; at human FPR1, 1.5 nM.

Turning to `COc1cc(F)c([C@@H]2CN(c3nc(N4C(=O)CC[C@H]4CO)ccc3F)C(=O)[C@H]2NC(=O)c2ccc(OC(F)F)cc2)c(F)c1` [Example 266], the EC50 at human FPR2 came out at 7.6 nM; on human FPR1 it was 410 nM.

For the molecule `COc1cc(F)c([C@@H]2CN(c3cc(F)cc(C(C)(C)O)c3)C(=O)[C@H]2NC(=O)c2ccc(Cl)cc2)c(F)c1` [Example 267], the EC50 on human FPR2 turned out to be 7.7 nM; at human FPR1, 1600 nM.

For the molecule `COCCn1cc(F)cc(N2C[C@@H](c3c(F)cc(OC)cc3F)[C@H](NC(=O)c3ccc(OC(F)F)cc3)C2=O)c1=O` [Example 268], the 50% effective concentration (EC50) on human FPR2 stood at 7.7 nM; on human FPR1 it was 140 nM.

Turning to `COc1cc(F)c([C@@H]2CN(c3cccn(CC4CC(F)(F)C4)c3=O)C(=O)[C@H]2NC(=O)c2ccc(OC(F)(F)F)cc2)c(F)c1` [Example 269], the concentration giving a half-maximal response (EC50) turned out to be 7.7 nM at human FPR2 and 27 nM on human FPR1.

For the molecule `COc1cc(F)c([C@@H]2CN(c3nc(C4CCNCC4)ccc3C(F)(F)F)C(=O)[C@H]2NC(=O)c2ccc(OC(F)F)cc2)c(F)c1` [Example 270], the EC50 stood at 7.8 nM on human FPR2 and 180 nM on human FPR1.

`COc1cc(F)c([C@@H]2CN(c3nc(NC4CCOC4)ccc3F)C(=O)[C@H]2NC(=O)c2ccc(OC(F)F)cc2)c(F)c1` (stereo partly drawn) [Example 271]: the EC50 was 7.8 nM at human FPR2 and 1400 nM at human FPR1.

Turning to `COc1cc(F)c([C@@H]2CN(c3cccn(CC4CC4)c3=O)C(=O)[C@H]2NC(=O)c2ccc(OC(F)(F)F)cc2)c(F)c1` [Example 272], the EC50 at human FPR2 came out at 7.8 nM; on human FPR1 it was 14 nM.

For `COc1cc(F)c([C@@H]2CN(c3cccn(CCO)c3=O)C(=O)[C@H]2NC(=O)c2ccc(C)cc2)c(F)c1` [Example 273], the EC50 at human FPR2 is 7.8 nM; at human FPR1 it was 1400 nM.

Turning to `CNC(=O)C(C)Nc1ccnc(N2C[C@@H](c3c(F)cc(OC)cc3F)[C@H](NC(=O)c3ccc(Cl)cc3)C2=O)c1C(F)(F)F` (stereo partly drawn) [Example 275], the EC50 stood at 8 nM on human FPR2 and 6100 nM on human FPR1.

`COCCn1cccc(N2C[C@@H](c3ccc(OC)cc3)[C@H](NC(=O)c3ccc(OC(F)F)cc3)C2=O)c1=O` [Example 276]: the figures for the 50% effective concentration (EC50) on human FPR2 and at human FPR1 were 8 nM and 13 nM, respectively.

Turning to `COCCn1cccc(N2C[C@@H](c3c(F)cc(OC)cc3F)[C@H](NC(=O)c3ccc(C(F)(F)F)cc3)C2=O)c1=O` [Example 277], the results for the half-maximal effective concentration (EC50) on human FPR2 and on human FPR1 were 8 nM and 210 nM, respectively.

Take `COc1cc(F)c([C@@H]2CN(c3cccn(CCN4CCOCC4)c3=O)C(=O)[C@H]2NC(=O)c2ccc(OC(F)(F)F)cc2)c(F)c1` [Example 278]: the EC50 was found to be 8.1 nM at human FPR2 and 340 nM at human FPR1.

As to `COc1cc(F)c([C@@H]2CN(c3nccc(N4CCN(C)CC4)c3C(F)(F)F)C(=O)[C@H]2NC(=O)c2ccc(OC(F)F)cc2)c(F)c1` [Example 279], the EC50 is 8.1 nM on human FPR2 and 5800 nM at human FPR1.

As for `COc1cc(F)c([C@@H]2CN(c3nc(N4CCCC4=O)ccc3F)C(=O)[C@H]2NC(=O)c2ccc(OC(F)F)cc2)c(F)c1` [Example 280], the EC50 worked out at 8.2 nM on human FPR2 and 26 nM on human FPR1.

In the case of `COc1cc(F)c([C@@H]2CN(c3nccc(NCC(=O)NC4CC4)c3C(F)(F)F)C(=O)[C@H]2NC(=O)c2ccc(Cl)cc2)c(F)c1` [Example 281], the EC50 at human FPR2 turned out to be 8.2 nM; at human FPR1, 560 nM.

As for `COc1cc(F)c([C@@H]2CN(c3nccc(N4CCN(S(C)(=O)=O)CC4)c3C(F)(F)F)C(=O)[C@H]2NC(=O)c2ccc(OC(F)F)cc2)c(F)c1` [Example 282], the values for the concentration for a half-maximal effect (EC50) at human FPR2 and on human FPR1 were 8.3 nM and 700 nM, respectively.

Regarding `COCC(C(=O)N(C)C)n1cccc(N2C[C@@H](c3c(F)cc(OC)cc3F)[C@H](NC(=O)c3ccc(OC(F)(F)F)cc3)C2=O)c1=O` (stereo partly drawn) [Example 283], the EC50 came out at 8.4 nM at human FPR2 and 19 nM at human FPR1.
